Inhibition data for 27 compounds are collected here from patent publication US20110172217A1, “RING-FUSED MORPHOLINE DERIVATIVE HAVING PI3K-INHIBITING ACTIVITY” (Shionogi & Co., Ltd., priority 2008, published 2011).

Sequence of PI-3 kinase γ (P48736 whole entry): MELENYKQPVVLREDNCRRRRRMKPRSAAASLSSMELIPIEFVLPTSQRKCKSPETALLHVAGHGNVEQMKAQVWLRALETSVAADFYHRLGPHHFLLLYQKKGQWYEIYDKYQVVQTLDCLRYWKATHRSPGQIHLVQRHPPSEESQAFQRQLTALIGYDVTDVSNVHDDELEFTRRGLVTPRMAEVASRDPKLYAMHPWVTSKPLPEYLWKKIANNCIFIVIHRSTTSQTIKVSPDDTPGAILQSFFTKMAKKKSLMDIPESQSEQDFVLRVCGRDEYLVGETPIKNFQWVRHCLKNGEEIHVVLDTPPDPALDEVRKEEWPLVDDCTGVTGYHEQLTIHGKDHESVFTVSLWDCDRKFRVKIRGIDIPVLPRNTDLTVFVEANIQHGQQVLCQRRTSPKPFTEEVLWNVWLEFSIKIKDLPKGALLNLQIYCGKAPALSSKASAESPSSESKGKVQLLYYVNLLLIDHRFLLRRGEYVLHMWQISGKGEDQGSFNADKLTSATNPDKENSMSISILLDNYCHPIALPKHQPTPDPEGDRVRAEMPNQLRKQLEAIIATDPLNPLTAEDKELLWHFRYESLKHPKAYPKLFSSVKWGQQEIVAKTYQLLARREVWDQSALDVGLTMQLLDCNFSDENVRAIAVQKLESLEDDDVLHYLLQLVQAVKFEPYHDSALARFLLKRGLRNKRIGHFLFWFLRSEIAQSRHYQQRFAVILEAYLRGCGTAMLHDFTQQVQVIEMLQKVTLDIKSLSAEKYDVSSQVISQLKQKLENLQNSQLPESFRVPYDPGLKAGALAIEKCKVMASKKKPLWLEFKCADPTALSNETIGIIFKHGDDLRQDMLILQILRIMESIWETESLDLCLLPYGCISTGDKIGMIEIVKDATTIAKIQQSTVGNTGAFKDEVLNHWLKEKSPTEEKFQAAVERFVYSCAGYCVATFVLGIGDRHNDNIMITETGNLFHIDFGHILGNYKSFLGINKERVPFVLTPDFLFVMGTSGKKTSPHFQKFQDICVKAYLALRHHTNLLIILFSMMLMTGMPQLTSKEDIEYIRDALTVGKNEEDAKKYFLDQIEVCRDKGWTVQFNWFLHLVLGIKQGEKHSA

This assay addresses PI-3 kinase γ (Homo sapiens, UniProt P48736). The assay can be described thus: PI3Kγ inhibitory activity, PI3-kinase HTRF assay (inhibition ratio). In kind it is biochemical. Particulars: 0.5 h, compound at 50 μmol/L. How it is done: For each compound synthesized in the above Examples, PI3Kγ inhibitory activity was measured.
The PI3Kγ inhibitory activity of a compound was evaluated using PI3-kinase HTRF™ assay (Millipore) according to the following procedure:
To each well of a testing plate, 5 μL of a compound solution containing 10% DMSO (200 μmol/L or 40 μmol/L as the concentration of the compound), 5 μL of a substrate solution (40 μmol/L phosphatidylinositol (4,5)-bisphosphate, 20 mmol/L MgCl2, 10 mmol/L DTT), and 5 μL of a enzyme solution (80 μg/mL PI-3 kinase γ, 10 mmol/L MgCl2, 5 mmol/L DTT) were added, and then allowed to stand for 10 minutes.
Then, 5 μL of a reaction solution (40 μmol/L ATP, 10 mmol/L MgCl2, 5 mmol/L DTT) was added thereto. After reacting for 30 minutes at room temperature, 5 μL of a solution containing EDTA and biotinylated phosphatidylinositol (3,4,5)-triphosphate were added to quench the reaction.
5 μL of a detection reagent containing a europium-labeled anti-GST antibody, the GST-tagged PH domain, and allophycocyanin-labeled streptavidin was added thereto. After 18 hours, HTRF (excitation wavelength: 330 nm, measured wavelengths: 620 nm and 665 nm) was measured.
HTRF ratio was defined as the value obtained by dividing the amount of fluorescence obtained at the measured wavelength 665 nm by the amount of fluorescence obtained at 620 nm. The HTRF ratio in the absence of a compound was defined as 100% activity and the HTRF ratio in the absence of PI-3 kinase γ was defined as 0% activity to calculate an inhibition ratio which was defined as the PI3Kγ inhibitory activity of a compound at 50 μmol/L or 10 μmol/L.
(In general: TR-FRET usually uses a lanthanide donor and a delayed reading to cut background.)
The inhibition is the relative decrease from the control value, in per cent. As for `CC(C)(C)OC(=O)COc1ccc(Nc2cnc3c(c2)OCCN3C(=O)Nc2ccccc2)cc1` [Compound I-237], the inhibition at 50 µM is no less than 95%.

For `NCCOc1ccccc1NC(=O)c1ccc2c(n1)N(C(=O)Nc1ccccc1)CCO2` [Compound I-130], the inhibition at 50 µM is no less than 95%.

Regarding `O=C(O)COc1cccc(Nc2cnc3c(c2)OCCN3C(=O)Nc2ccccc2)c1` [Compound I-241], the inhibition at 50 µM was no less than 95%.

Turning to `CC(C)CCc1ccc2c(n1)N(C(=O)Nc1ccccc1)CCO2` [Compound I-88], the inhibition at 50 µM was found to be 91%.

Regarding `O=C(O)CC(=O)Nc1cnc2c(c1)OCCN2C(=O)Nc1ccccc1` [Compound I-161], the inhibition at 50 µM worked out at 88%.

In the case of `COC(=O)c1ccc(O)c(Nc2ccc3c(n2)N(C(=O)Nc2ccccc2)CCO3)c1` [Compound I-217], the inhibition at 50 µM is 77%.

With `O=C(Nc1ccccc1)N1CCOc2cc(N3CCNCC3)cnc21` [Compound I-246], the inhibition at 50 µM was no less than 95%.

Consider `O=C(O)CNC(=O)c1ccc(Nc2ccc3c(n2)N(C(=O)Nc2ccccc2)CCO3)cc1` [Compound I-278], for which the inhibition at 50 µM is no less than 95%.

For the compound `O=C(O)c1ccc(C(=O)Nc2ccc3c(n2)N(C(=O)Nc2ccccc2)CCO3)cc1` [Compound I-125], the inhibition at 50 µM is no less than 95%.

With `O=C(O)c1cccc(Nc2ccc3c(n2)N(C(=O)Nc2ccccc2)CCO3)c1` [Compound I-147], the inhibition at 50 µM was no less than 95%.

Take `O=C(O)CCCc1ccc2c(n1)N(C(=O)Nc1ccccc1)CCO2` [Compound I-95]: the inhibition at 50 µM was no less than 95%.

Consider `CC(C)(C)OC(=O)COc1ccc(Nc2ccc3c(n2)N(C(=O)Nc2ccccc2)CCO3)cc1` [Compound I-213], for which the inhibition at 50 µM was no less than 95%.

Take `CC1(C/C=C/c2ccccc2)SC(N2CCOc3cccnc32)=NC1=O` (stereo not drawn) [Compound I-6]: the inhibition at 50 µM was found to be 81%.

`O=C(O)c1ccc(-c2ccc3c(n2)N(C(=O)Nc2ccncc2)CCO3)cc1` [Compound I-209]: the inhibition at 50 µM worked out at 90%.

`O=C(Nc1ccccc1)N1CCOc2cc(Nc3ccc(F)cc3Cl)cnc21` [Compound I-309]: the inhibition at 50 µM amounted to 90%.

Regarding `CCCCNS(=O)(=O)c1cccc(Nc2cnc3c(c2)OCCN3C(=O)Nc2ccccc2)c1` [Compound I-311], the inhibition at 50 µM was found to be 81%.

On to `CC(C)(C)OC(=O)c1cccc(Nc2ccc3c(n2)N(C(=O)Nc2ccccc2)CCO3)c1` [Compound I-142], for which the inhibition at 50 µM was found to be 78%.

As for `COc1ccc(-c2ccc3c(n2)N(C(=O)Nc2ccccc2)CCO3)cc1OC` [Compound I-99], the inhibition at 50 µM was no less than 95%.

For the compound `CCN(CC)c1ccc(Nc2cnc3c(c2)OCCN3C(=O)Nc2ccccc2)cc1` [Compound I-310], the inhibition at 50 µM was no less than 95%.

Turning to `NCCOc1ccc(Nc2ccc3c(n2)N(C(=O)Nc2ccccc2)CCO3)cc1` [Compound I-221], the inhibition at 50 µM was no less than 95%.

Turning to `CC(NC(=O)c1ccc2c(n1)N(C(=O)Nc1ccccc1)CCO2)C(=O)O` (stereo not drawn) [Compound I-38], the inhibition at 50 µM is 76%.

On to `COC(=O)c1cccc(Nc2ccc3c(n2)N(C(=O)Nc2ccccc2)CCO3)c1` [Compound I-232], for which the inhibition at 50 µM is no less than 95%.

In the case of `O=C(O)Cn1cc(-c2cnc3c(c2)OCCN3C(=O)Nc2ccccc2)cn1` [Compound I-280], the inhibition at 50 µM was 88%.

For the compound `O=C(Nc1ccccc1)N1CCOc2ccc(-c3ccoc3)nc21` [Compound I-101], the inhibition at 50 µM was no less than 95%.

Regarding `O=C(O)C1CCN(c2ccc3c(n2)N(C(=O)Nc2ccccc2)CCO3)CC1` [Compound I-220], the inhibition at 50 µM is no less than 95%.

On to `O=C(Nc1ccccc1)N1CCOc2cc(Nc3ccc(S(=O)(=O)N4CCOCC4)cc3)cnc21` [Compound I-323], for which the inhibition at 50 µM was determined as 89%.

As for `COc1cccc(NC(=O)N2CCOc3nc(-c4ccc(C(=O)O)cc4)ccc32)c1` [Compound I-265], the inhibition at 50 µM turned out to be 75%.
